{"source": "paper PMC7687371", "about": "“Quantitative in Vitro to in Vivo Extrapolation (QIVIVE) for Predicting Reduced Anogenital Distance Produced by Anti-Androgenic Pesticides in a Rodent Model for Male Reproductive Disorders” (Environmental Health Perspectives, 2020)", "key": {"[1]": {"tested_on": "NCI-H295R cells", "assay": "Cell viability (MTT) in the H295R assay", "type": "cell-based, human", "experimental": "To capture effects on steroid hormone synthesis (testosterone and androstendione), we tested all 12 pesticides in the H295R assay with the human adrenocortical carcinoma cell line NCI-H295R (American Type Culture Collection no. CRL-2,128, LGC Standards), as previously described ([Hecker et al. 2011]; [Rosenmai et al. 2013]). In brief, cells were cultured in DMEM/F-12 +glutamine medium with HEPES buffer (Invitrogen) containing 1% insulin-transferrin-sodium selenite plus Premix (VWR) and 2.5% Nu-Serum (BD Bioscience) at 37°C in a 5% CO2 atmosphere. The day before exposure, cells were seeded 300,000 per well in clear 24-well plates (VWR Corning). Cells were exposed for 48 h to control (Forskolin: 1μM , 10μM (Sigma-Aldrich); and Prochloraz: 0.3μM , 3μM (VWR-Bie and Berntsen) or test compounds. The vehicle (DMSO) concentration was kept constant in all wells (0.1%). After 48 h, the exposure culture medium was removed and stored at –80°C until the levels of 10 steroid hormones (testosterone, androstenedione, aldosterone, corticosterone, cortisol, dehydroepiandrosterone, 17α-hydroxyprogesterone , progesterone, estrone, and 17β-estradiol ) were quantified using the high-performance liquid chromatography–tandem mass spectrometry method described elsewhere ([Mortensen and Pedersen 2007]). Minor modifications were made to accommodate a smaller sample size and to include more hormones. […]"}, "[2]": {"tested_on": "pregnant dams and pups", "settings": "ref EFSA's Draft Assessment Reports (DARs); cited from earlier work"}, "[3]": {"set-up": "method as in U.S. EPA 2012", "settings": "EPI Suite, experimental preferred over modeled; ref U.S. EPA 2012; cited from earlier work"}, "[4]": {"settings": "ref Wetmore et al. (2012); cited from earlier work"}, "[5]": {"tested_on": "NCI-H295R cells", "assay": "H295R steroidogenesis assay", "type": "cell-based, human", "experimental": "To capture effects on steroid hormone synthesis (testosterone and androstendione), we tested all 12 pesticides in the H295R assay with the human adrenocortical carcinoma cell line NCI-H295R (American Type Culture Collection no. CRL-2,128, LGC Standards), as previously described ([Hecker et al. 2011]; [Rosenmai et al. 2013]). In brief, cells were cultured in DMEM/F-12 +glutamine medium with HEPES buffer (Invitrogen) containing 1% insulin-transferrin-sodium selenite plus Premix (VWR) and 2.5% Nu-Serum (BD Bioscience) at 37°C in a 5% CO2 atmosphere. The day before exposure, cells were seeded 300,000 per well in clear 24-well plates (VWR Corning). Cells were exposed for 48 h to control (Forskolin: 1μM , 10μM (Sigma-Aldrich); and Prochloraz: 0.3μM , 3μM (VWR-Bie and Berntsen) or test compounds. The vehicle (DMSO) concentration was kept constant in all wells (0.1%). After 48 h, the exposure culture medium was removed and stored at –80°C until the levels of 10 steroid hormones (testosterone, androstenedione, aldosterone, corticosterone, cortisol, dehydroepiandrosterone, 17α-hydroxyprogesterone , progesterone, estrone, and 17β-estradiol ) were quantified using the high-performance liquid chromatography–tandem mass spectrometry method described elsewhere ([Mortensen and Pedersen 2007]). Minor modifications were made to accommodate a smaller sample size and to include more hormones. The liquid chromatography system (Agilent 1100) was equipped with an Atlantis C18 column ( 2.1×150mm , 3μm ) (Waters Corp.) maintained at 40°C. The sample injection volume was 50μL . […] The mass spectrometer was a Quattro Ultima triple quadrupole instrument (Waters Corp.). […] Each pesticide was tested in 2-fold serial dilutions at concentrations between 0.8 and 50μM in three independent experiments, and hormone levels were normalized to the solvent controls containing 0.1% DMSO. Cell viability was evaluated by using the 3-(4,5-dimethylthiazol-2-yl)-2,5- diphenyltetrazolium bromide (MTT) assay (Sigma) as previously described ([Hecker et al. 2011]; [Rosenmai et al. 2013]). Fluorescence was measured (excitation 560 nm , emission 590 nm ) using a Wallac Victor2 1420 multilabel counter (PerkinElmer)."}, "[6]": {"assay": "PBK model first-order kinetic parameters fitted to in vivo ADME data", "set-up": "species or system rat", "settings": "PBK model parameter"}}, "note": "Marks after values point to notes of the source that are not given here."}
{"molecule": "Fc1ccc(Oc2ccnc3cc(Cl)cc(Cl)c23)cc1", "note": "[Quinoxyfen, quinoxyphen]", "values": [{"measurement": "Cytotoxicity in H295R assay, concentrations", "setting": "[1]", "value": "cytotoxicity was observed at the same concentrations"}, {"measurement": "Critical toxicity", "setting": "[2]", "value": "Reduced pup BW during lactation, liver hypertrophy"}, {"measurement": "LOAEL (mg/kg bw)", "setting": "[2]", "value": 100, "unit": "mg/kg bw"}, {"measurement": "NOAEL (mg/kg bw)", "setting": "[2]", "value": 25, "unit": "mg/kg bw"}, {"measurement": "log Kow", "setting": "[3]", "value": 4.66}, {"measurement": "Unbound plasma fraction (%)", "setting": "[4]", "value": "5.0^g %"}, {"measurement": "Effect on androgen (steroid) synthesis, in words", "setting": "[5]; H295R steroidogenesis assay", "value": "inhibited testosterone synthesis"}, {"measurement": "IC20", "setting": "[5]; Homo sapiens, NCI-H295R, read-out: Testosterone inhibition (IC20 µM)", "value": 1000, "unit": "nM"}, {"measurement": "Androstendione, LOEC", "setting": "[5]; multiple contrast tests", "value": 1.6, "unit": "µM"}, {"measurement": "Corticosterone, LOEC", "setting": "[5]; multiple contrast tests", "value": 3.1, "unit": "µM"}, {"measurement": "DHEA, LOEC", "setting": "[5]; multiple contrast tests", "value": 1.6, "unit": "µM"}, {"measurement": "Estradiol, LOEC", "setting": "[5]; multiple contrast tests", "value": 25, "unit": "µM"}, {"measurement": "Progesterone, LOEC", "setting": "[5]; multiple contrast tests", "value": 50, "unit": "µM"}, {"measurement": "Testosterone, lowest observed effect concentration (LOEC)", "setting": "[5]; multiple contrast tests", "value": 1.6, "unit": "µM"}, {"measurement": "Biliary excretion rate (L/h) KBiliary", "setting": "[6]", "value": 1.4, "unit": "L/h"}, {"measurement": "Fecal excretion rate from gut (L/h) KFeces", "setting": "[6]", "value": 2, "unit": "L/h"}, {"measurement": "Portal GI absorption rate into liver (L/h) KAS", "setting": "[6]", "value": 1, "unit": "L/h"}, {"measurement": "Urine excretion rate from kidney (L/h) KUrine", "setting": "[6]", "value": 0.01, "unit": "L/h"}, {"measurement": "Metabolism rate in liver, Total (L/h) KMetab", "setting": "[6]; metabolic clearance", "value": 0.3, "unit": "L/h"}]}
